This test relates to Molt-4 cells. Nature of the test: Molt-4 cell killing activity test (CCK-8). The class given is cell-based. The following applies: for activity for killing Molt-4 cells, in words: comparison with C1, the targeting ligand or control molecules; for killing Molt-4 cells at different concentrations (Figure 1), in words: 0.001-3 µM, comparison with control molecules. As for the experimental part:
Molt-4 cells were cultured and amplified in 10 cm dishes by using RPMI-1640 medium supplemented with 10% fetal bovine serum. Actively growing and healthy Molt-4 cells were collected, centrifuged at 1000 rpm for 5 minutes, and after removing the supernatant, the cells were resuspended in fresh RPMI-1640 medium containing 10% fetal bovine serum. Cell counting was then performed. The cell density was adjusted to 120,000 cells per milliliter, and 100 µL of the cell suspension was added to each well of a 96-well transparent cell culture plate. It was noted that the edge wells of the 96-well plate were not used for testing; and 300 µL of PBS alone was added to these wells to reduce medium evaporation.
The small molecule compounds to be tested for activity were prepared. A series of small molecule concentration gradients (0.001, 0.003, 0.01, 0.03, 0.1, 0.3, 1, and 3 µM) were pre-set, and a series of 2× drug dilutions for the above concentrations were prepared in RPMI-1640 medium containing 10% fetal bovine serum. 100 µL of the above medium containing the gradient concentrations of the drug was added to each well of a 96-well plate pre-seeded with cells, so that the final drug concentration in each well was the pre-set concentration gradient. Three replicate wells were used for each tested drug concentration. The 96-well plate was placed back in a 37°C incubator, and the cell viability was measured after three days.
The plate was taken out three days after adding the drugs, and 100 µL of pre-prepared CCK-8 working solution was added to each well. The CCK-8 working solution was obtained through diluting a CCK-8 stock solution (C0041, Beyotime) by 10-fold volumn with a serum-free RPMI-1640 medium. The 96-well plates with the added CCK-8 working solution were placed back in the 37°C incubator and incubated for 0.5-2 hours. The plates were then taken out, and the absorbance value (OD value) of each well was measured at a wavelength of 450 nm, and the cell viability in each experimental group was calculated according to the following formula: Relative cell viability (%) = […] × 100%.

The mark [1] stands for this setting: Homo sapiens, 72 h, Molt-4 cells, three days, CCK-8, read-out: EC50 (Molt-4).
Setting [2] is: Homo sapiens, Bcl-xL-positive Molt-4 cells, read-out: cellular activity / killing activity (Molt-4 cells).

Each structure is given as a SMILES string. Where two headings read alike, the source gives them in different places.

Data on 22 compounds can be found in patent publication EP4759810A1, “PROTAC TARGETING BCL-XL PROTEIN AND USE THEREOF” (BEIJING SUNCELL BIO-MEDICAL CO., LTD., priority 2023, dated 2025).

Turning to `[2H]C1([2H])Cc2cccc(C(=O)Nc3nc4ccccc4s3)c2CN1c1ccc(-c2cnn(CC34CC5CC(CC(C5)C3)C4)c2C)c(C(=O)NCCOCCOCCOCCNc2cccc3c2C(=O)N(C2CCC(=O)NC2=O)C3=O)n1` (stereo not drawn) [Compound A13D6-PF3], the “activity for killing Molt-4 cells, in words” value (from here on “activity”) is on record as “good cellular activity similar to those of the targeting ligand per se”. Under setting [1], the EC50 is < 0.01 µM.

With `Cc1c(-c2ccc(N3CCc4cccc(C(=O)Nc5nc6ccccc6s5)c4C3)nc2C(=O)NCCn2cc(COCCOCCOCCNc3cccc4c3C(=O)N(C3CCC(=O)NC3=O)C4=O)nn2)cnn1CC12CC3CC(CC(C3)C1)C2` (stereo not drawn) [APR3], the “activity” value is on record as “good cellular activity similar to those of the targeting ligand per se”. Further, the EC50 under setting [1] was < 0.01 µM.

On to `Cc1ncsc1-c1ccc([C@H](C)NC(=O)[C@@H]2C[C@@H](O)CN2C(=O)[C@@H](NC(=O)CCN2CCC(CN3CCN(CC#Cc4ccc(OCCCc5ccc(N6CCc7cccc(C(=O)Nc8nc9ccccc9s8)c7C6)nc5C(=O)O)c(F)c4)CC3)CC2)C(C)(C)C)cc1` [APQ3], for which, under setting [1], the EC50 was 0.01 to 0.1 µM.

As for `O=C1CCC(N2C(=O)c3cccc(NCCOCCOCCOCCOCCNC(=O)c4nc(N5CCc6cccc(C(=O)Nc7nc8ccccc8s7)c6C5)ccc4CCCOc4ccc(C#CCN5CCNCC5)cc4F)c3C2=O)C(=O)N1` (stereo not drawn) [AF4], the “activity” value is recorded as “lower killing activity or loss the function”. For the same compound, the EC50 under setting [1] is > 1 µM.

With `O=C1CCN(c2ccc(N3CCN(C4CCN(CC#Cc5ccc(OCCCc6ccc(N7CCc8cccc(C(=O)Nc9nc%10ccccc%10s9)c8C7)nc6C(=O)O)c(F)c5)CC4)CC3)cc2)C(=O)N1` [APQ7a], the “killing Molt-4 cells at different concentrations (Figure 1), in words” value is “comparable to A-1331852”. Besides, under setting [1], the EC50 was < 0.01 µM. Further, under setting [2], the EC50 is < 0.01 µM.

With `O=C1CCN(c2ccc(N3CC(CN4CCN(CC#Cc5ccc(OCCCc6ccc(N7CCc8cccc(C(=O)Nc9nc%10ccccc%10s9)c8C7)nc6C(=O)O)c(F)c5)CC4)C3)cc2)C(=O)N1` [APQ6b], the EC50 under setting [1] was 0.01 to 0.1 µM.

In the case of `COc1cc(N2CCN(CC#Cc3ccc(OCCCc4ccc(N5CCc6cccc(C(=O)Nc7nc8ccccc8s7)c6C5)nc4C(=O)O)c(F)c3)CC2)ccc1N1CCC(=O)NC1=O` [APQ902a], the EC50 under setting [1] is < 0.01 µM and the EC50 under setting [2] is < 0.01 µM.

On to `O=C1CCN(c2ccc(N3CCN(C(=O)CCCN4CCN(CC#Cc5ccc(OCCCc6ccc(N7CCc8cccc(C(=O)Nc9nc%10ccccc%10s9)c8C7)nc6C(=O)O)c(F)c5)CC4)CC3)cc2)C(=O)N1` [APQ5b], for which the EC50 under setting [1] lay within 0.01 to 0.1 µM.

With `Cc1c(-c2ccc(N3CCc4cccc(C(=O)Nc5nc6ccccc6s5)c4C3)nc2C(=O)NCCn2cc(COCCOCCOCCOCCNc3cccc4c3C(=O)N(C3CCC(=O)NC3=O)C4=O)nn2)cnn1CC12CC3CC(CC(C3)C1)C2` (stereo not drawn) [APR4], the “activity” value was “good cellular activity similar to those of the targeting ligand per se”. For the same compound, the EC50 under setting [1] was < 0.01 µM.

`CC(C)(C)OC(=O)c1nc(N2CCc3cccc(C(=O)Nc4nc5ccccc5s4)c3C2)ccc1CCCOc1ccc(C#CCN2CCN(CC3CCN(c4ccc(N5CCC(=O)NC5=O)cc4)CC3)CC2)cc1F` [APQ10-1]: the “activity” value is “lower killing activity or loss the function”. Under setting [1], the EC50 is > 1 µM.

Turning to `O=C1CCN(c2ccc(N3CCN(C(=O)CCN4CCN(CC#Cc5ccc(OCCCc6ccc(N7CCc8cccc(C(=O)Nc9nc%10ccccc%10s9)c8C7)nc6C(=O)O)c(F)c5)CC4)CC3)cc2)C(=O)N1` [APQ5a], the EC50 is < 0.01 µM under setting [1] and < 0.01 µM under setting [2].

Take `Cc1c(-c2ccc(N3CCc4cccc(C(=O)Nc5nc6ccccc6s5)c4C3)nc2C(=O)NCCOCCOCCNc2cccc3c2C(=O)N(C2CCC(=O)NC2=O)C3=O)cnn1CC12CC3CC(CC(C3)C1)C2` (stereo not drawn) [APF2]: the “activity” value is “good cellular activity similar to those of the targeting ligand per se”. For the same compound, the EC50 under setting [1] was < 0.01 µM.

With `CN(C)CC#Cc1ccc(OCCCc2sc(N3CCc4cccc(C(=O)Nc5nc6ccccc6s5)c4C3)nc2C(=O)O)c(F)c1` [Compound A-1155463, reference compound], the EC50 (Molt-4 cells, three days, CCK-8, read-out: EC50 (Molt-4)) was < 0.01 µM.

On to `Cc1c(-c2ccc(N3CCc4cccc(C(=O)Nc5nc6ccccc6s5)c4C3)nc2C(=O)NCCOCCOCCOCCNc2cccc3c2C(=O)N(C2CCC(=O)NC2=O)C3=O)cnn1CC12CC3CC(CC(C3)C1)C2` (stereo not drawn) [APF3], for which the “activity” value is given as “good cellular activity similar to those of the targeting ligand per se”. Moreover, the EC50 under setting [1] was < 0.01 µM.

On to `O=C1CCN(c2ccc(OCCN3CCC(CN4CCN(CC#Cc5ccc(OCCCc6ccc(N7CCc8cccc(C(=O)Nc9nc%10ccccc%10s9)c8C7)nc6C(=O)O)c(F)c5)CC4)CC3)cc2)C(=O)N1` [APQ8], for which, under setting [1], the EC50 was 0.01 to 0.1 µM.

For the compound `CN[C@@H](C)C(=O)N[C@H](C(=O)N1CCC[C@H]1c1nc(C(=O)c2cccc(OCCN3CCC(CN4CCN(CC#Cc5ccc(OCCCc6ccc(N7CCc8cccc(C(=O)Nc9nc%10ccccc%10s9)c8C7)nc6C(=O)O)c(F)c5)CC4)CC3)c2)cs1)C1CCCCC1` [APL-1], under setting [1], the EC50 was 0.01 to 0.1 µM.

On to `Cc1c(-c2ccc(N3CCc4cccc(C(=O)Nc5nc6ccccc6s5)c4C3)nc2C(=O)NCCn2cc(COCCNc3cccc4c3C(=O)N(C3CCC(=O)NC3=O)C4=O)nn2)cnn1CC12CC3CC(CC(C3)C1)C2` (stereo not drawn) [APR1], for which the “activity” value was “good cellular activity similar to those of the targeting ligand per se”. For the same compound, the EC50 under setting [1] was < 0.01 µM.

Take `Cc1c(-c2ccc(N3CCc4cccc(C(=O)Nc5nc6ccccc6s5)c4C3)nc2C(=O)NCCn2cc(COCCOCCNc3cccc4c3C(=O)N(C3CCC(=O)NC3=O)C4=O)nn2)cnn1CC12CC3CC(CC(C3)C1)C2` (stereo not drawn) [APR2]: the “activity” value is reported as “good cellular activity similar to those of the targeting ligand per se”. Moreover, under setting [1], the EC50 is < 0.01 µM.

`O=C1CCC(n2nnc3ccc(NCCN4CCC(CN5CCN(CC#Cc6ccc(OCCCc7ccc(N8CCc9cccc(C(=O)Nc%10nc%11ccccc%11s%10)c9C8)nc7C(=O)O)c(F)c6)CC5)CC4)cc3c2=O)C(=O)N1` (stereo not drawn) [APQ11]: the “killing Molt-4 cells at different concentrations (Figure 1), in words” value is “comparable to A-1331852”. The EC50 under setting [1] is < 0.01 µM. Also, under setting [2], the EC50 was < 0.01 µM.

Turning to `Cc1c(-c2ccc(N3CCc4cccc(C(=O)Nc5nc6ccccc6s5)c4C3)nc2C(=O)NCCOCCOCCOCCOCCNc2cccc3c2C(=O)N(C2CCC(=O)NC2=O)C3=O)cnn1CC12CC3CC(CC(C3)C1)C2` (stereo not drawn) [APF4], the “activity” value is given as “good cellular activity similar to those of the targeting ligand per se”. Under setting [1], the EC50 was < 0.01 µM.

As to `COC(=O)c1nc(N2CCc3cccc(C(=O)Nc4nc5ccccc5s4)c3C2)ccc1CCCOc1ccc(C#CCN2CCN(c3ccc(N4CCC(=O)NC4=O)cc3)CC2)cc1F` [APQ9-1], the “activity” value is “lower killing activity or loss the function”. Further, the EC50 under setting [1] was > 1 µM.

`O=C1CCN(c2ccc(N3CCN(CC4CCN(CC#Cc5ccc(OCCCc6ccc(N7CCc8cccc(C(=O)Nc9nc%10ccccc%10s9)c8C7)nc6C(=O)O)c(F)c5)CC4)CC3)cc2)C(=O)N1` [APQ7b]: the EC50 under setting [1] was in the range of 0.01 to 0.1 µM.
